Measured values from patent publication US20120016019A1, “PHARMACEUTICAL COMPOSITION FOR TREATING OR PREVENTING CANCER” (priority 2010, published 2012).
Where “and” joins values, the source holds several entries; their conditions need not be identical. Equal entries are not always repeated.

System: PC-3
Experiment: Cell counts, PC-3
Type: cell-based, human
Conditions: for cell counts: single wells
Protocol: Cells were plated into 48-well Corning CellBind™ plates at densities of 20,000 cells for normal cells and 10,000˜20,000 cells for cancer cells. 24 to 48 h after plating, cells were treated with the composition according to the invention at concentrations of 4.5e-2M. The first time point treated with the composition of the invention is 0 h. At 3 days after the first treatment with the composition of the invention, medium was changed and the composition of the invention at the same concentrations were added to the cultured cells.
Cells were harvested using Trypsin-EDTA at the designated time points. […] Two 48-well plates were used per cell line, and they were measured at 0 h, 12 h, 24 h, 48 h, 4 d and 7 d, respectively.
In the 1st plate, cells were treated with the composition according to the invention and medium was changed at 0 h and 3 d.
In the 2nd plate, 7 d of the 1st week (LC-50) is the same as 0 h of the 2nd week (recovery).
At 0 h of the 2nd week, medium was exchanged with untreated medium for the remainder of the experiment. The untreated controls were not measured in the 2nd week (recovery) due to overconfluence by the end of the 1st week.

Structure (SMILES): CC(=O)O[C@H]1C(=O)[C@@]2(C)[C@H]([C@H](OC(=O)c3ccccc3)[C@]3(O)C[C@H](OC(=O)[C@H](O)[C@@H](NC(=O)c4ccccc4)c4ccccc4)C(C)=C1C3(C)C)[C@]1(OC(C)=O)CO[C@@H]1C[C@@H]2O [Taxol]
- killing of PC-3 cells: relatively resistant to Taxol
- cell counts, Mean value (1st week (LC50), 0 h): 6580
- cell counts, Mean value (1st week (LC50), 12 h): 5462
- cell counts (1st week (LC50), 12 h): 4805 and 5805 and 5775
- cell counts, Mean value (1st week (LC50), 24 h): 5205
- cell counts (1st week (LC50), 24 h): 4360 and 4820 and 6435
- cell counts, Mean value (1st week (LC50), 48 h): 2013
- cell counts (1st week (LC50), 48 h): 1821 and 1969
- cell counts, Mean value (1st week (LC50), 4 d): 1029
- cell counts (1st week (LC50), 4 d): 861 and 975 and 1250
- cell counts, Mean value (2nd week (recovery), 0 h): 514
- cell counts (2nd week (recovery), 0 h): 392 and 389 and 760
- cell counts, Mean value (2nd week (recovery), 24 h): 305
- cell counts (2nd week (recovery), 24 h): 269 and 328 and 318
- cell counts, Mean value (2nd week (recovery), 48 h): 350
- cell counts (2nd week (recovery), 48 h): 369 and 303 and 378
- cell counts, Mean value (2nd week (recovery), 4 d): 1324
- cell counts (2nd week (recovery), 4 d): 1574 and 1376 and 1023
- cell counts, Mean value (2nd week (recovery), 7 d): 483
